Measured values as given in PubChem BioAssay AID190 (DTP/NCI, 2004).
Values joined by “and” are separate entries in the source; they are usually repeats but may differ in a detail not shown here. Identical values can stand only once. Toxic doses and inconclusive results are not listed.

Tested on: AKR/Lw mice, AKR lymphoma ip, median survival T/C
Assay: NCI In Vivo Anticancer Drug Screen. Data for tumor model Lymphoma AKR (Transplanted) (intraperitoneal) in AKR/Lw mice
Settings: endpoint: median survival time, higher = longer survival
Method: The antitumor activity of compounds was measured in mice bearing transplantable tumors. Survival or tumor size were measured and the results are expressed as the measurement made in the treated group (T) divided by the measurement made in the vehicle treated control group (C). The tumor model used in this assay is Lymphoma AKR (Transplanted) (intraperitoneal) in AKR/Lw mice

[1] = dose: 100.0 mg/kg/injection, schedule: Q01DX001 (ip), vehicle: saline
[2] = dose: 200.0 mg/kg/injection, schedule: Q01DX001 (ip), vehicle: saline
[3] = dose: 50.0 mg/kg/injection, schedule: Q01DX001 (ip), vehicle: saline
[4] = dose: 400.0 mg/kg/injection, schedule: Q01DX001 (ip), vehicle: saline
[5] = dose: 100.0 mg/kg/injection, schedule: Q01DX001 (ip), vehicle: Klucel (hydroxypropylcellulose) (HPC)
[6] = dose: 200.0 mg/kg/injection, schedule: Q01DX001 (ip), vehicle: Klucel (hydroxypropylcellulose) (HPC)
[7] = dose: 400.0 mg/kg/injection, schedule: Q01DX001 (ip), vehicle: Klucel (hydroxypropylcellulose) (HPC)

With `CN(Cc1cnc2nc(N)nc(N)c2n1)c1ccc(C(=O)N[C@@H](CCC(=O)O)C(=O)O)cc1` the T/C (dose: 0.15 mg/kg/injection, schedule: Q04DX003 (ip), vehicle: saline) was 100 % of control, the T/C (dose: 0.25 mg/kg/injection, schedule: Q01DX001 (ip), vehicle: saline) was 106 % of control and the T/C (dose: 0.25 mg/kg/injection, schedule: Q01DX009 (ip), vehicle: saline) was 112 % of control. For the same compound, the T/C (dose: 0.25 mg/kg/injection, schedule: Q01DX015 (ip), vehicle: saline) was 114 % of control and 116 % of control, the T/C (dose: 0.3 mg/kg/injection, schedule: Q04DX003 (ip), vehicle: saline) was 111 % of control and the T/C (dose: 0.5 mg/kg/injection, schedule: Q01DX001 (ip), vehicle: saline) was 109 % of control and 117 % of control. For the same compound, the T/C (dose: 0.5 mg/kg/injection, schedule: Q04DX008 (ip), vehicle: saline) was 116 % of control, the T/C (dose: 0.6 mg/kg/injection, schedule: Q04DX003 (ip), vehicle: saline) was 98 % of control and the T/C (dose: 0.75 mg/kg/injection, schedule: Q01DX009 (ip), vehicle: saline) was 112 % of control. For the same compound, the T/C (dose: 0.75 mg/kg/injection, schedule: Q04DX003 (ip), vehicle: saline) was 87 % of control and 93 % of control and 111 % of control, the T/C (dose: 1.0 mg/kg/injection, schedule: Q01DX001 (ip), vehicle: saline) was 109 % of control and 115 % of control and the T/C (dose: 1.2 mg/kg/injection, schedule: Q01DX009 (ip), vehicle: saline) was 91 % of control. For the same compound, the T/C (dose: 1.5 mg/kg/injection, schedule: Q01DX001 (ip), vehicle: saline) was 89 % of control and 102 % of control, the T/C (dose: 1.5 mg/kg/injection, schedule: Q01DX015 (ip), vehicle: saline) was 197 % of control and the T/C (dose: 2.0 mg/kg/injection, schedule: Q01DX001 (ip), vehicle: saline) was 106 % of control and 115 % of control. The T/C (dose: 2.0 mg/kg/injection, schedule: Q04DX003 (ip), vehicle: saline) was 95 % of control, the T/C (dose: 2.5 mg/kg/injection, schedule: Q01DX009 (ip), vehicle: saline) was 87 % of control and 91 % of control and the T/C (dose: 3.0 mg/kg/injection, schedule: Q01DX001 (ip), vehicle: saline) was 100 % of control and 114 % of control and 116 % of control. For the same compound, the T/C (dose: 4.0 mg/kg/injection, schedule: Q01DX001 (ip), vehicle: saline) was 116 % of control, the T/C (dose: 4.0 mg/kg/injection, schedule: Q01DX009 (ip), vehicle: saline) was 94 % of control and the T/C (dose: 4.0 mg/kg/injection, schedule: Q04DX003 (ip), vehicle: saline) was 109 % of control. The T/C (dose: 4.0 mg/kg/injection, schedule: Q04DX008 (ip), vehicle: saline) was 113 % of control, the T/C (dose: 5.0 mg/kg/injection, schedule: Q01DX001 (ip), vehicle: saline) was 114 % of control and the T/C (dose: 5.0 mg/kg/injection, schedule: Q01DX009 (ip), vehicle: saline) was 88 % of control. The T/C (dose: 10.0 mg/kg/injection, schedule: Q01DX001 (ip), vehicle: saline) was 102 % of control and 104 % of control, the T/C (dose: 11.0 mg/kg/injection, schedule: Q04DX008 (ip), vehicle: saline) was 123 % of control and the T/C (dose: 12.0 mg/kg/injection, schedule: Q01DX001 (ip), vehicle: saline) was 107 % of control and 111 % of control. The T/C (dose: 12.0 mg/kg/injection, schedule: Q04DX003 (ip), vehicle: saline) was 93 % of control and 100 % of control, the T/C (dose: 16.0 mg/kg/injection, schedule: Q04DX004 (ip), vehicle: saline) was 93 % of control and the T/C (dose: 20.0 mg/kg/injection, schedule: Q01DX001 (ip), vehicle: saline) was 102 % of control. The T/C (dose: 24.0 mg/kg/injection, schedule: Q04DX003 (ip), vehicle: saline) was 94 % of control, the T/C (dose: 24.0 mg/kg/injection, schedule: Q04DX004 (ip), vehicle: saline) was 115 % of control and the T/C (dose: 40.0 mg/kg/injection, schedule: Q01DX001 (ip), vehicle: saline) was 108 % of control.

With `OCC#CC#CCO` the T/C [1] was 100 % of control and the T/C [2] was 92 % of control.

`C1CC[N+]2=C(C1)OCCC2` was tested, and the T/C [3] was 94 % of control, the T/C [1] was 91 % of control and the T/C [2] was 97 % of control.

In the case of `O=NN(CCCl)C(=O)NC1CC2CCC1C2` (centres undefined), the T/C (dose: 0.31 mg/kg/injection, schedule: Q04DX004 (ip), vehicle: Klucel (hydroxypropylcellulose) (HPC)) is reported as 115 % of control, the T/C (dose: 0.62 mg/kg/injection, schedule: Q04DX004 (ip), vehicle: Klucel (hydroxypropylcellulose) (HPC)) is reported as 93 % of control and the T/C (dose: 0.75 mg/kg/injection, schedule: Q04DX008 (ip), vehicle: Klucel (hydroxypropylcellulose) (HPC)) is reported as 102 % of control. The T/C (dose: 1.25 mg/kg/injection, schedule: Q04DX004 (ip), vehicle: Klucel (hydroxypropylcellulose) (HPC)) was 112 % of control, the T/C (dose: 1.5 mg/kg/injection, schedule: Q04DX008 (ip), vehicle: Klucel (hydroxypropylcellulose) (HPC)) was 108 % of control and the T/C (dose: 2.5 mg/kg/injection, schedule: Q04DX004 (ip), vehicle: Klucel (hydroxypropylcellulose) (HPC)) was 112 % of control. The T/C (dose: 5.0 mg/kg/injection, schedule: Q04DX004 (ip), vehicle: Klucel (hydroxypropylcellulose) (HPC)) was 120 % of control, the T/C (dose: 5.0 mg/kg/injection, schedule: Q04DX008 (ip), vehicle: Klucel (hydroxypropylcellulose) (HPC)) was 150 % of control and the T/C (dose: 10.0 mg/kg/injection, schedule: Q04DX004 (ip), vehicle: Klucel (hydroxypropylcellulose) (HPC)) was 114 % of control. The T/C (dose: 20.0 mg/kg/injection, schedule: Q04DX004 (ip), vehicle: Klucel (hydroxypropylcellulose) (HPC)) was 114 % of control.

With `ClC1=C(Cl)C2(Cl)C(COc3ccc(Cl)cc3)CC1(Cl)C2(Cl)Cl` (centres undefined) the T/C [1] was 94 % of control, the T/C [2] was 88 % of control and the T/C [4] was 91 % of control.

`C/C(=C\Cl)CN1C(=O)c2ccccc2C1=O` was tested, and the T/C [1] was 93 % of control, the T/C [2] was 102 % of control and the T/C [4] was 93 % of control.

For `CCCN(CCC)CC(C)=O`, the T/C (dose: 11.0 mg/kg/injection, schedule: Q01DX001 (ip), vehicle: saline) was 106 % of control, the T/C (dose: 17.0 mg/kg/injection, schedule: Q01DX001 (ip), vehicle: saline) was 103 % of control and the T/C (dose: 25.0 mg/kg/injection, schedule: Q01DX001 (ip), vehicle: saline) was 100 % of control. The T/C (dose: 37.5 mg/kg/injection, schedule: Q01DX001 (ip), vehicle: saline) was 100 % of control, the T/C [3] was 115 % of control and the T/C [1] was 105 % of control and 110 % of control.

For `COc1cc2ccc(C(C)N)cc2cc1OC` (centres undefined), the T/C (dose: 50.0 mg/kg/injection, schedule: Q04DX003 (ip), vehicle: saline) was 105 % of control, the T/C [1] was 98 % of control and the T/C (dose: 100.0 mg/kg/injection, schedule: Q04DX003 (ip), vehicle: saline) was 102 % of control. The T/C [2] was 100 % of control and the T/C (dose: 200.0 mg/kg/injection, schedule: Q04DX003 (ip), vehicle: saline) was 95 % of control.

`CCOC(=O)/C(C(C)=O)=C(/O)c1ccc(OC(F)(F)C(F)Cl)cc1OC(F)(F)C(F)Cl.CCOC(=O)/C(C(C)=O)=C(/O)c1ccc(OC(F)(F)C(F)Cl)cc1OC(F)(F)C(F)Cl.[Cu]` (centres undefined) was tested, and the T/C [5] was 100 % of control and the T/C [6] was 90 % of control.

`COc1ccc(COC(=O)CN2C(=O)c3ccccc3C2=O)cc1` was tested, and the T/C [5] was 97 % of control, the T/C [6] was 100 % of control and the T/C [7] was 113 % of control.

For `OC1(C#CC2(O)c3ccccc3-c3ccccc32)c2ccccc2-c2ccccc21`, the T/C [5] was 105 % of control, the T/C [6] was 108 % of control and the T/C [7] was 102 % of control.

In the case of `COc1ccc(N2C(=O)CC(Sc3ccccc3N)C2=O)cc1` (centres undefined), the T/C [7] is reported as 87 % of control.

With `NC(=O)NO` the T/C (dose: 15.6 mg/kg/injection, schedule: Q06HX012 (ip), vehicle: saline) was 93 % of control, the T/C (dose: 15.6 mg/kg/injection, schedule: Q06HX016 (ip), vehicle: saline) was 96 % of control and the T/C (dose: 25.0 mg/kg/injection, schedule: Q06HX012 (ip), vehicle: saline) was 100 % of control. For the same compound, the T/C (dose: 31.25 mg/kg/injection, schedule: Q06HX012 (ip), vehicle: saline) was 96 % of control, the T/C (dose: 50.0 mg/kg/injection, schedule: Q01DX009 (ip), vehicle: saline) was 94 % of control and the T/C (dose: 50.0 mg/kg/injection, schedule: Q06HX012 (ip), vehicle: saline) was 100 % of control. For the same compound, the T/C (dose: 62.5 mg/kg/injection, schedule: Q06HX004 (ip), vehicle: saline) was 92 % of control and 100 % of control, the T/C (dose: 62.5 mg/kg/injection, schedule: Q06HX008 (ip), vehicle: saline) was 93 % of control and the T/C (dose: 62.5 mg/kg/injection, schedule: Q06HX012 (ip), vehicle: saline) was 93 % of control. For the same compound, the T/C (dose: 62.5 mg/kg/injection, schedule: Q06HX016 (ip), vehicle: saline) was 100 % of control, the T/C (dose: 75.0 mg/kg/injection, schedule: Q06HX012 (ip), vehicle: saline) was 96 % of control and the T/C (dose: 100.0 mg/kg/injection, schedule: Q06HX008 (ip), vehicle: saline) was 92 % of control. For the same compound, the T/C (dose: 100.0 mg/kg/injection, schedule: Q06HX012 (ip), vehicle: saline) was 88 % of control.

For `CCOC(=O)c1ccc(NCC(C)(C)[N+](=O)[O-])cc1`, the T/C [1] was 88 % of control and the T/C [4] was 88 % of control.
